Data taken from patent US20240390468A1, “SURVIVIN AND MAGE-A9 DUAL-TARGETED IMMUNOTHERAPY” (IMMUNOVACCINE TECHNOLOGIES INC., priority 2022, published 2024).
“Also recorded” adds a separate entry of the source.

Columns and labels:
[1] = test system: peptide-loaded RMA-S HHD cells; assay: Chromium 51 release assay (CTL assay); format: cell-based, mice; settings: effector:target 75:1, 50:1, 25:1; mice immunized with recombinant MAGE-A9 and poly(I:C)
[2] = test system: spleen cells; assay: Spleen cell studies (omission of peptide 223); format: cell-based
[3] = biological target: MHC class 1 allele A*02:01 (Homo sapiens, UniProt P04439, D140Y/D185E/D98H/E176V/E277Q/G131W/G231S/I119V/I121R/I166T/I218V/L300P/L318F/N151K/N90K/P208A/P217A/Q86G/Q94H/R138H/R169H/T345S); assay: REVEAL binding of HLA-A2 binding peptides; settings: Higher REVEAL score
[4] = test system: spleen cells of HLA-B7 transgenic mice immunized with MAGE-A9 full length recombinant protein; assay: IFN-γ ELISPOT, MAGE-A9 immunogenic HLA-B7 peptides; format: cell-based; settings: individual responses per mouse
Protocol: FIGS. 19A and 19B depict IFN-γ ELISPOT results of 1st experiment for the MAGE-A9 immunogenic HLA-B7 peptides. IFN-γ response induced by HLA-B7 candidate peptides of MAGE-A9 as detected by IFN-γ ELISPOT assay. Two group of 3 and 5 mice were immunized respectively with poly(I:C) alone (as control; bar on the left) and with MAGE-A9 full-length recombinant protein admixed with poly(I:C) (bar on the right). Mice were sacrificed 34 days after 1st immunization and spleen cells were tested in IFN-γ ELISPOT after stimulation with dendritic cells loaded with the individual candidate or control peptides (FIG. 19A) or after direct stimulation with the individual candidate or control peptides (FIG. 19B). DCE: Dendritic cell empty; NS: Non stimulated; B7-Ctrl; irrelevant control HLA-B7 peptide. Student T-test *p<0.05; ** p<0.005; *** p<0.0005; **** p<0.00005. […]
Groups of ten 6-12 weeks-old HLA-A1, HLA-A2/DR1, HLA-A24, HLA-All (as a surrogate for HLA-A3 allele) and HLA-B7 male/female mice were immunized three times s.c. and i.p., 14 days apart, with 30 μg of MAGE-A9 his-tag full-length recombinant protein admixed with 50 μg (s.c.) or 200 μg (i.p.) of Poly(I:C) in a final volume of 100 μl. […] The immune response was measured using IFN-γ ELISPOT assays (BD). Then spots were counted using an ELISPOT counter (CTL Analyzer) and enumerated as number of spot-forming units (SFU) per well. […]

| Sequence | CTL response (51Cr-release) [1] | impact of omission on immunogenic potential of a final formulation [2] | binding to MHC class 1 allele A*02:01 (in words) [3] | IFN-γ response (ELISPOT) [4] |
| --- | --- | --- | --- | --- |
| ALSVMGVYV [MAGE-A9 223, MAGE-A9 peptide antigen] | elicited a response | does not significantly impact | high binding | – |
| MPKAALLII [peptide 195] | – | – | – | greatest activity; also recorded: gave an immune response |
